Test results from US20070128217A1 (priority 2003, published 2007).

Experiments:
[1] = tested on: rabbit serum obtained by immunizing a rabbit with the SARS-CoV strain Frankfurt 1; type: binding; set-up: Binding of a rabbit serum to linear peptides / Binding of a rabbit serum to looped peptides / Rabbit serum linear peptides / Rabbit serum looped peptides / Binding of a rabbit serum to linear peptides of protein N of SARS-CoV Urbani (Rabbit serum linear peptides) / Binding of a rabbit serum to looped/cyclic peptides of protein N of SARS-CoV Urbani (Rabbit serum looped peptides): unit not given here
[2] = tested on: antibodies in sera from SARS patients (sera 1a, 1b, 2, 6, 37, 62, London, SARS-yellow, SARS-green); type: binding, human; set-up: Binding of serum 6 to linear peptides of protein X1 of SARS-CoV Urbani / Binding of serum 37 to linear peptides of protein X1 of SARS-CoV Urbani / Binding of serum 6 to looped/cyclic peptide (PEPSCAN-ELISA) / Binding of serum 37 to looped/cyclic peptide (PEPSCAN-ELISA) / Binding of serum 37 to looped/cyclic peptides of protein X1 of SARS-CoV Urbani / Binding of serum 6 to linear peptides of protein X2 / Binding of serum 37 to linear peptides of protein X2 / Binding of serum 37 to looped/cyclic peptides of protein X2 of SARS-CoV Urbani / Binding of serum 6 to linear peptides of protein M of SARS-CoV Urbani / Binding of serum 37 to linear peptides of protein M of SARS-CoV Urbani / Binding of serum 6 to looped/cyclic peptides of protein M of SARS-CoV Urbani / Binding of serum 37 to looped/cyclic peptides of protein M of SARS-CoV Urbani / Binding of serum 6 to linear peptides of protein X3 of SARS-CoV Urbani / Binding of serum 37 to linear peptides of protein X3 of SARS-CoV Urbani / Binding of serum 37 to looped/cyclic peptides of protein X3 of SARS-CoV Urbani / Binding of serum 6 to linear peptides of protein X4 of SARS-CoV Urbani / Binding of serum 37 to linear peptides of protein X4 of SARS-CoV Urbani / Binding of serum 37 to looped/cyclic peptides of protein X4 of SARS-CoV Urbani / Binding of serum 6 to linear peptides of protein X5 of SARS-CoV Urbani / Binding of serum 37 to linear peptides of protein X5 of SARS-CoV Urbani / Binding of serum 37 to looped/cyclic peptides of protein X5 of SARS-CoV Urbani / Binding of serum 6 to linear peptides of protein N of SARS-CoV Urbani / Binding of serum 37 to linear peptides of protein N of SARS-CoV Urbani / Binding of serum 6 to linear peptide (PEPSCAN-ELISA) / Binding of serum 1a to looped/cyclic peptides of protein N of SARS-CoV Urbani / Binding of serum 1b to looped/cyclic peptides of protein N of SARS-CoV Urbani / Binding of serum 2 to looped/cyclic peptides of protein N of SARS-CoV Urbani / Binding of serum 6 to looped/cyclic peptides of protein N of SARS-CoV Urbani / Binding of serum 37 to looped/cyclic peptides of protein N of SARS-CoV Urbani / Binding of serum 62 to looped/cyclic peptides of protein N of SARS-CoV Urbani / Binding of serum London to looped/cyclic peptides of protein N of SARS-CoV Urbani / Binding of serum SARS-green to looped/cyclic peptides of protein N of SARS-CoV Urbani: unit not given here
[3] = tested on: recombinant human anti-SARS-CoV antibody 03-018; type: binding; set-up: Binding of antibody 03-018 to linear peptides of the N protein of SARS-CoV Urbani / Binding of antibody 03-018 to looped/cyclic peptides of the N protein of SARS-CoV Urbani: unit not given here
[4] = tested on: control sera (pooled serum of ten healthy LUMC hospital workers; commercial negative donor pooled serum from the Dutch bloodbank); type: binding, human; set-up: Binding of Control serum LUMC to linear peptides / Binding of Control serum Blood-bank to linear peptides / Binding of Control serum LUMC to looped peptides / Binding of Control Serum Blood-Bank to Looped peptides / Binding of Control serum LUMC to linear peptides of the protein M of SARS-CoV Urbani / Binding of Control serum Blood-bank to linear peptides of the protein M of SARS-CoV Urbani / Binding of Control serum LUMC to looped peptides of the protein M of SARS-CoV Urbani / Binding of Control Serum Blood-Bank to Looped peptides of the protein M of SARS-CoV Urbani: unit not given here

Sequence	Binding of a rabbit serum to linear peptides of protein N of SARS-CoV Urbani (Rabbit serum linear peptides) [1]	Binding of a rabbit serum to looped/cyclic peptides of protein N of SARS-CoV Urbani (Rabbit serum looped peptides) [1]	Binding of serum 1a to linear peptides of protein N of SARS-CoV Urbani [2]	Binding of serum 1a to looped/cyclic peptides of protein N of SARS-CoV Urbani [2]	Binding of serum 1b to linear peptides of protein N of SARS-CoV Urbani [2]	Binding of serum 1b to looped/cyclic peptides of protein N of SARS-CoV Urbani [2]	Binding of serum 2 to linear peptides of protein N of SARS-CoV Urbani [2]	Binding of serum 2 to looped/cyclic peptides of protein N of SARS-CoV Urbani [2]	Binding of serum 6 to looped/cyclic peptides of protein N of SARS-CoV Urbani [2]	Binding of serum 37 to looped/cyclic peptides of protein N of SARS-CoV Urbani [2]	Binding of serum 62 to looped/cyclic peptides of protein N of SARS-CoV Urbani [2]	Binding of serum London to looped/cyclic peptides of protein N of SARS-CoV Urbani [2]	Binding of serum SARS-green to looped/cyclic peptides of protein N of SARS-CoV Urbani [2]	Binding of serum SARS-yellow to looped/cyclic peptides of protein N of SARS-CoV Urbani [2]	Binding of antibody 03-018 to linear peptides of the N protein of SARS-CoV Urbani [3]	Binding of antibody 03-018 to looped/cyclic peptides of the N protein of SARS-CoV Urbani [3]	Binding of Control Serum Blood-Bank to Looped peptides [4]	Binding of Control serum Blood-bank to linear peptides [4]	Binding of Control serum LUMC to linear peptides [4]	Binding of Control serum LUMC to looped peptides [4]	also measured
SRIGMEVTPSGTWLT	0.1	0.4	0.2	0.3	0.1	0.2	0.2	0.4	0.2	0.5	0.5	0.4	0.5	0.4	0.1	0.2	–	–	–	–	Binding of serum 6 to linear peptides of protein N of SARS-CoV Urbani [2]: 0.2; Binding of serum 37 to linear peptides of protein N of SARS-CoV Urbani [2]: 0.7; Binding of serum 62 to linear peptides of protein N of SARS-CoV Urbani [2]: 0.6; Binding of serum London to linear peptides of protein N of SARS-CoV Urbani [2]: 0.5; Binding of serum SARS-green to linear peptides of protein N of SARS-CoV Urbani [2]: 0.4; Binding of serum SARS-yellow to linear peptides of protein N of SARS-CoV Urbani [2]: 0.6; Control Serum Blood-Bank Looped peptides [4]: 0.6; Control serum Blood-bank linear peptides [4]: 0.8; Control serum LUMC linear peptides [4]: 0.6; Control serum LUMC looped peptides [4]: 0.6
SRSRGNSRNSTPGSS	0.3	0.7	–	0.5	–	0.4	–	0.3	0.1	0.3	0.3	0.3	0.0	0.0	0.1	0.2	0.5	0.7	0.5	0.4	Binding of serum 1a to linear peptide (PEPSCAN-ELISA) [2]: 1.0; Binding of serum 1b to linear peptide (PEPSCAN-ELISA) [2]: 0.6; Binding of serum 2 to linear peptide (PEPSCAN-ELISA) [2]: 0.3; Binding of serum 6 to linear peptide (PEPSCAN-ELISA) [2]: 0.2; Binding of serum 37 to linear peptide (PEPSCAN-ELISA) [2]: 0.7; Binding of serum 62 to linear peptide (PEPSCAN-ELISA) [2]: 0.7; Binding of serum London to linear peptide (PEPSCAN-ELISA) [2]: 0.5; Binding of serum SARS-green to linear peptide (PEPSCAN-ELISA) [2]: 0.4; Binding of serum SARS-yellow to linear peptide (PEPSCAN-ELISA) [2]: 0.6
SWFTALTQHGKEELR	0.1	0.0	0.2	0.2	0.1	0.1	0.2	0.2	0.1	0.3	0.2	0.2	0.1	0.0	0.1	0.2	0.4	0.6	0.7	0.3	Binding of serum 6 to linear peptides of protein N of SARS-CoV Urbani [2]: 0.1; Binding of serum 37 to linear peptides of protein N of SARS-CoV Urbani [2]: 0.6; Binding of serum 62 to linear peptides of protein N of SARS-CoV Urbani [2]: 0.6; Binding of serum London to linear peptides of protein N of SARS-CoV Urbani [2]: 0.5; Binding of serum SARS-green to linear peptides of protein N of SARS-CoV Urbani [2]: 0.2; Binding of serum SARS-yellow to linear peptides of protein N of SARS-CoV Urbani [2]: 0.5
TALALLLLDRLNQLE	0.2	0.5	–	0.4	–	0.3	–	0.5	0.3	0.8	0.7	0.5	0.7	0.5	0.1	0.2	0.8	0.7	0.7	0.8	Binding of serum 1a to linear peptide (PEPSCAN-ELISA) [2]: 0.3; Binding of serum 1b to linear peptide (PEPSCAN-ELISA) [2]: 0.2; Binding of serum 2 to linear peptide (PEPSCAN-ELISA) [2]: 0.2; Binding of serum 6 to linear peptide (PEPSCAN-ELISA) [2]: 0.2; Binding of serum 37 to linear peptide (PEPSCAN-ELISA) [2]: 0.7; Binding of serum 62 to linear peptide (PEPSCAN-ELISA) [2]: 0.7; Binding of serum London to linear peptide (PEPSCAN-ELISA) [2]: 0.5; Binding of serum SARS-green to linear peptide (PEPSCAN-ELISA) [2]: 0.8; Binding of serum SARS-yellow to linear peptide (PEPSCAN-ELISA) [2]: 0.6
